Key:
[1] = molecular target: T1, PLA2 (Sus scrofa, UniProt P00592); experiment: Isothermal calorimetric titration of PLA2 with bile salt; format: binding, pig; details: ITC, 8.5 μM PLA2
T1 construct: made in house
Description: ITC titration of PLA2 with <1 mM (below the CMC) bile salt stock solution was carried out on the Microcal calorimeter (model VP-itc) with cell volume of 1.42 ml with stirring at 300 rpm. Successive injections were made every 5 min. Standard software was used for the peak integration. The heat change with the internal calibration associated with the dilution of the titrant in the […] was subtracted from the heat change obtained by the injection of the bile salt in the presence of 8.5 μM PLA2. The net heat change per injection in the presence of PLA2 was integrated to obtain the total heat change as a function of the total added amphiphile concentration.

[2] = molecular target: T2, WT (wild type) pig PLA2 (Sus scrofa, UniProt P00592); experiment: PLA2 catalyzed hydrolysis of sonicated DMPC vesicles with added bile salt (pH-stat); format: biochemical; details: for effect of bile salt on the rate of hydrolysis (monophasic/biphasic): DMPC vesicles, pancreatic PLA2
T2 construct: made in house
Description: Aqueous dispersion of phospholipid was sonicated in a bath type sonicator. Virtually transparent suspension was annealed for at least 4 hours at room temperature before use. Reaction progress for the PLA2 catalyzed hydrolysis of sonicated DMPC (1 mM) vesicles was measured by pH-stat titration (Radiometer) with 1 mM 2-aminopropanediol in 4 ml reaction buffer containing 5 mM CaCl2 for DMPC (or 0.5 mM for DMPM), 1 mM NaCl, […] atmosphere. Reaction was initiated by adding 0.1 μg enzyme in 1-10 μl solution. The pH stat method was also used for monitoring the rate of hydrolysis of DMPM (0.4 mM) vesicles in the presence of polymyxin [27-29], or of the mixed-micelles of POPC with bile salts in 1:2 ratio [13, 30].
Delay before the onset of the stationary phase of the PLA2 catalyzed reaction progress for the hydrolysis of zwitterionic phospholipids has been extensively characterized. […] The apparent rates in FIG. 3 were obtained from the initial slopes of such reaction progress during which <5% of the total substrate is hydrolyzed.
The CMC of the bile salts used in this study range between 0.8 to 5 mM.

[3] = molecular target: T1, PLA2; experiment: Quenching of RET signal from TMA-DPH bound to PLA2 by bile salts; format: binding, pig; details: 1 μM PLA2 and TMA-DPH, pH 8.0
Description: (§1) Fluorescence emission spectrum or time course of the intensity change from tryptophan or the resonance energy transfer probe TMA-DPH were measured in the ratio mode on SLM-Aminco AB2 in a 1 cm cuvette [31, 32] in 1.6 ml stirred buffer containing 1 or 2 μM PLA2 in 10 mM Tris, 5 mM CaCl2 and 20 mM NaCl at pH 8.0 and 24° C. The slit-widths were 4 nm with excitation at 280.

[4] = molecular target: T3, pig pancreatic IB PLA2 (Sus scrofa, UniProt P00592); experiment: Rate-lowering of hydrolysis of DMPC + 0.05 mole fraction cholate vesicles by pig pancreatic PLA2; format: biochemical; details: for Relative Rate-lowering (%) Activity, pPLA2: 0.03 mole fraction, DMPC + 0.05 mole fraction cholate
T3 construct: made in house
Text: (§2) Independent support for selective binding of the rate lowering compounds to a regulatory site on PLA2 comes from the rate-lowering effect of such compounds on the hydrolysis of DMPC vesicles containing 0.05 mole fraction cholate.
(§3) Scores of other compounds in guggul were not active.

[5] = molecular target: T4, human pancreatic IB PLA2 (Homo sapiens, UniProt P04054); experiment: Rate-lowering of hydrolysis of DMPC + 0.05 mole fraction cholate vesicles by human pancreatic PLA2; format: biochemical; details: 0.03 mole fraction; DMPC + 0.05 mole fraction cholate
T4 construct: gift of Dr. Suren Tatulian (Orlando, Fla.)
Text: as §2, §3

[6] = molecular target: T5, PLA2 M20W/W3F (Sus scrofa, UniProt P00592, M42W/W25F); experiment: Bile salt binding by Trp emission, M20W/W3F PLA2; set-up: species or system pig; details: read-out: KEB
T5 construct: made in house
Description: as §1
(§4) As shown in [45], the binding of decylsulfate to the R site is accompanied by a modest increase in the emission intensity from Trp-3. […] As summarized in Table 2, the value of KEB depends on the position of Trp, although Hill coefficient remains 1. […] Note that KEB for the EB complex of ΔPLA2 is about 7-fold larger than that for PLA2.

[7] = molecular target: PLA2 R6M (Sus scrofa, UniProt P00592, R28M); experiment: Bile salt binding by Trp emission, R6M PLA2; set-up: species or system pig; details: read-out: KEB
Description: as §1, §4

[8] = molecular target: T6, PLA2 K53W/W3F (Sus scrofa, UniProt P00592, R75W/W25F); experiment: Bile salt binding by Trp emission, K53W/W3F PLA2; set-up: species or system pig; details: read-out: KEB
T6 construct: made in house
Description: as §1, §4

[9] = molecular target: PLA2 R6M/K10M (Sus scrofa, UniProt P00592, K32M/R28M); experiment: Bile salt binding by Trp emission, R6M/K10M PLA2; set-up: species or system pig; details: read-out: KEB
Description: as §1, §4

[10] = molecular target: PLA2 K10M (Sus scrofa, UniProt P00592, K32M); experiment: Bile salt binding by Trp emission, K10M PLA2; set-up: species or system pig; details: read-out: KEB
Description: as §1, §4

[11] = molecular target: T7, PLA2 K56W/W3F (Sus scrofa, UniProt P00592, K78W/W25F); experiment: Bile salt binding by Trp emission, K56W/W3F PLA2; set-up: species or system pig; details: read-out: KEB
T7 construct: made in house
Description: as §1, §4

[12] = molecular target: T8, PLA2 K10W/W3F (Sus scrofa, UniProt P00592, K32W/W25F); experiment: Bile salt binding by Trp emission, K10W/W3F PLA2; set-up: species or system pig; details: read-out: KEB
T8 construct: made in house
Description: as §1, §4

[13] = molecular target: T9, PLA2 L2W/W3F (Sus scrofa, UniProt P00592, L24W/W25F); experiment: Bile salt binding by Trp emission, L2W/W3F PLA2; set-up: species or system pig; details: read-out: KEB
T9 construct: made in house
Description: as §1, §4

[14] = molecular target: T10, PLA2 (3W)(WT) (Sus scrofa, UniProt P00592); experiment: Bile salt binding by Trp emission, (3W)(WT) PLA2; set-up: species or system pig; details: read-out: KEB
T10 construct: made in house
Description: as §1, §4

[15] = molecular target: T11, PLA2 K87W/W3F (Sus scrofa, UniProt P00592, K109W/W25F); experiment: Bile salt binding by Trp emission, K87W/W3F PLA2; set-up: species or system pig; details: read-out: KEB
T11 construct: made in house
Description: as §1, §4

[16] = molecular target: T12, PLA2 L19W/W3F (Sus scrofa, UniProt P00592, L41W/W25F); experiment: Bile salt binding by Trp emission, L19W/W3F PLA2; set-up: species or system pig; details: read-out: KEB
T12 construct: made in house
Description: as §1, §4

[17] = molecular target: T13, PLA2 R6W/W3F (Sus scrofa, UniProt P00592, R28W/W25F); experiment: Bile salt binding by Trp emission, R6W/W3F PLA2; set-up: species or system pig; details: read-out: KEB
T13 construct: made in house
Description: as §1, §4

[18] = molecular target: T4, human pancreatic IB PLA2; experiment: Hydrolysis of DMPC vesicles by human IB PLA2 with added bile salt; format: biochemical; details: 1 mM DMPC
Description: (§5) Aqueous dispersion of phospholipid was sonicated in a bath type sonicator. Virtually transparent suspension was annealed for at least 4 hours at room temperature before use. Reaction progress for the PLA2 catalyzed hydrolysis of sonicated DMPC (1 mM) vesicles was measured by pH-stat titration (Radiometer) with 1 mM 2-aminopropanediol in 4 ml reaction buffer containing 5 mM CaCl2 for DMPC (or 0.5 mM for DMPM), 1 mM NaCl, and 0.1 mM EDTA at pH 8.0 and 24° C. in the nitrogen purged closed atmosphere. Reaction was initiated by adding 0.1 μg enzyme in 1-10 μl solution. The pH stat method was also used for monitoring the rate of hydrolysis of DMPM (0.4 mM) vesicles in the presence of polymyxin [27-29], or of the mixed-micelles of POPC with bile salts in 1:2 ratio [13, 30].

[19] = molecular target: T1, PLA2; experiment: PLA2 catalyzed hydrolysis of mixed micelles of POPC with bile salts; format: biochemical, pig; details: 1 mM POPC, 0.7 mole fraction bile salt
Description: as §5

T4 sequence (P04054 23-148): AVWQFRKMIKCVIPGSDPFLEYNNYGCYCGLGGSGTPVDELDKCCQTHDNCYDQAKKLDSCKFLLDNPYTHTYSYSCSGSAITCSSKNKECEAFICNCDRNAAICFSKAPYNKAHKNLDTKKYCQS
T2 sequence (P00592 23-146): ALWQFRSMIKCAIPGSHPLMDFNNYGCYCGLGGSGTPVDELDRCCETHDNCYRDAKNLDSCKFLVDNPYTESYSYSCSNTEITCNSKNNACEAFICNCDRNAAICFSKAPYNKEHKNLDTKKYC
T3 sequence (P00592 23-146): as above
T1 sequence (P00592 23-146): as above
T8 sequence (P00592 23-146 W25F/K32W): as the sequence (P00592 23-146) above, with W3F, K10W counted along it
T9 sequence (P00592 23-146 L24W/W25F): as the sequence (P00592 23-146) above, with L2W, W3F counted along it
T12 sequence (P00592 23-146 W25F/L41W): as the sequence (P00592 23-146) above, with W3F, L19W counted along it
T6 sequence (P00592 23-146 W25F/R75W): as the sequence (P00592 23-146) above, with W3F, R53W counted along it
T11 sequence (P00592 23-146 W25F/K109W): as the sequence (P00592 23-146) above, with W3F, K87W counted along it
Sequence of PLA2 R6M/K10M (P00592 23-146 R28M/K32M): as the sequence (P00592 23-146) above, with R6M, K10M counted along it
T5 sequence (P00592 23-146 W25F/M42W): as the sequence (P00592 23-146) above, with W3F, M20W counted along it
T7 sequence (P00592 23-146 W25F/K78W): as the sequence (P00592 23-146) above, with W3F, K56W counted along it
Sequence of PLA2 R6M (P00592 23-146 R28M): as the sequence (P00592 23-146) above, with R6M counted along it
Sequence of PLA2 K10M (P00592 whole entry K32M): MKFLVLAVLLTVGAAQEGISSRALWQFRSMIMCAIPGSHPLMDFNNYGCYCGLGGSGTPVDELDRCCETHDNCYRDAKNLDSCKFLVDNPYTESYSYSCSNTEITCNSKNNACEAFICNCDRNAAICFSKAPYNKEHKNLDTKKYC
T10 sequence (P00592 23-146): as the sequence (P00592 23-146) above
T13 sequence (P00592 23-146 W25F/R28W): as the sequence (P00592 23-146) above, with W3F, R6W counted along it

For `C[C@H](CCC(=O)NCCS(=O)(=O)O)[C@H]1CC[C@H]2[C@@H]3[C@@H](O)C[C@@H]4C[C@H](O)CC[C@]4(C)[C@H]3CC[C@]12C` [TUDOC, tauroursodeoxycholate], the Kd ([1]; read-out: KEB) was < 2 µM, the “effect of bile salt on the rate of hydrolysis (monophasic/biphasic)” value (“effect of bile salt … (monophasic/biphasic)” for short) [2] was “biphasic effect” and the “efficacy to quench RET signal from TMA-DPH bound to PLA2” value [3] was “most effective”.
For `CC=C1C(O)C[C@H]2[C@@H]3CCC4=CC(=O)CC[C@]4(C)[C@H]3CC[C@]12C` (stereo partly drawn) [Gugguloster-3-one-16-ol], the “Relative Rate-lowering (%) Activity, pPLA2” value [4] was 90% and the “Relative Rate-lowering (%) Activity, hPLA2” value [5] was 56%.
In the case of `C[C@H](CCC(=O)NCCS(=O)(=O)O)[C@H]1CC[C@H]2[C@@H]3CC[C@@H]4C[C@H](O)CC[C@]4(C)[C@H]3C[C@H](O)[C@]12C` [TDOC, taurodeoxycholate], the “effect of bile salt … (monophasic/biphasic)” value [2] is reported as “biphasic effect”, the Kd [6] is reported as 2 µM and the Kd [7] is reported as > 100 µM. For the same molecule, the Kd [8] was 33 µM, the Kd [9] was 10 µM and the Kd [10] was > 100 µM. It also gave a Kd [11] of 35 µM, a Kd [12] of 10 µM and a Kd [13] of 20 µM. It also gave a Kd [14] of 30 µM, a Kd [15] of 2 µM and a Kd [16] of 44 µM. The Kd [17] was 4 µM.
In the case of `CC(=CCCC(C)C1CCC2(C)C3=CCC4C(C)(C)C(O)CCC4(C)C3CCC12C)C(=O)O` (stereo not drawn) [Masticadienolic acid], the “Relative Rate-lowering (%) Activity, pPLA2” value [4] is reported as >95%, the “relative effectiveness in lowering the rate with pig pancreatic PLA2” value ([4]; DMPC vesicles containing 0.05 mole fraction cholate, FIG. 6) is reported as “effective by another factor of ten” and the “Relative Rate-lowering (%) Activity, hPLA2” value [5] is reported as 66%.
For `C[C@H](CCC(=O)O)[C@H]1CC[C@H]2[C@@H]3[C@H](O)C[C@@H]4C[C@H](O)CC[C@]4(C)[C@H]3C[C@H](O)[C@]12C` [cholate, reference compound], the “heat change on titration of PLA2” value [1] was “No heat change”, the “peak rate of hydrolysis of DMPC vesicles” value ([2]; 1 mM DMPC, 24° C., cholate above 0.04 mM) was 140 s⁻¹ and the “effect of bile salt … (monophasic/biphasic)” value [2] was “only a rate increase”. The “effect on rate of hydrolysis of DMPC vesicles by human pancreatic IB PLA2” value [18] was “increases”, the “efficacy to quench RET signal from TMA-DPH bound to PLA2” value [3] was “least effective” and the “initial rate of hydrolysis of POPC in mixed micelles” value [19] was 150 s⁻¹.

Reference: patent US20080139520A1, “Altering cholesterol and fat uptake by novel allosteric inhibitors of pancreatic phospholipase A2” (priority 2006, published 2008)
